According to patent publication US11926628B2 (Gilead Sciences, Inc., priority 2021, dated 2024):

Assays:
[1] = test system: Jurkat NFκB-luciferase cells; assay: Jurkat NFκB-Luciferase Assay; type: cell-based; settings: Homo sapiens; Jurkat NFκB-luciferase cells activated with anti-CD3 antibody (OKT3), 2.5 hrs at 37° C.; geometric mean; read-out: DGK NFKb Luciferase EC50
Procedure: The activity of compounds was tested in a cell based NFκB reporter assay. Jurkat cells that are stably expressing a luciferase reporter construct under the transcriptional control of a NFκB reporter element were activated with an anti-CD3 antibody and luciferase levels were measured with a bioluminescence readout. An increase in the levels of bioluminescence was indicative of enhanced T-cell activation following DGKα inhibition by the compound.
Flat-bottom polystyrene plates (384-well, tissue culture treated) were coated overnight at 4° C. with 20 ul/well of a solution of phosphate-buffered saline supplemented with 5 ug/ml anti-CD3 antibody (clone OKT3, Biolegend). The day after, the excess antibody was washed out five times with 100 ul/well of assay medium (RPMI supplemented with 10% fetal bovine serum) using a Biotek EL406 instrument and leaving 20 ul of residual volume in each well. Jurkat NFκB-luciferase cells (Promega #) were harvested and diluted to 1 million cells/ml in assay medium. Sixty nanoliters of test compound dissolved in DMSO at various concentrations were dispensed into 384-well v-bottom polypropylene plates (Greiner) using a Labcyte Echo instrument. Thirty microliters of medium containing the Jurkat NFκB-luciferase cells were then dispensed using a Biotek MicroFlo instrument in each well of the compound-containing plate. The medium/cell/compound mixture was mixed with a Bravo instrument and 20 ul/well of the mixture was transferred to the anti-CD3-coated plate. The assay mixture was then incubated for 2.5 hrs at 37° C. followed by equilibration at 25° C. for 30 min. Forty microliters of One-Glo Ex (Promega) was then added to the assay mixture and luciferase activity was read on a Envision plate reader 7 minutes later.
Bioluminescence data were normalized based on maximum enhancement (1 micromolar of compound) and on basal activation (DMSO) controls. Least squares curve fittings were performed using a four-parameter variable slope nonlinear regression model. EC50 is defined as the concentration of compound required to produce 50% of maximum NFκB luciferase signal. EC50 values from multiple experiments were averaged by geometric mean and the standard deviation was calculated.

human DGKα = human DGKα (Homo sapiens (Human), UniProt P23743); assay: DGKα Biochemical Activity Assay (ADP-Glo); settings: recombinant DGKα 1 nM, 100 μM ATP, 18:1 DAG/POPS/octylglucoside micelles, 1 hour at 25° C.; geometric mean; read-out: HTBS DGKa 1X ATP KM IC50
Source text: Alternatively, the enzymatic activity of human DGKα was monitored in a biochemical assay in the presence or absence of compounds and using micelles containing 18:1 Diacylglycerol (DAG), 16:0-18:1 PS (POPS) and Octylglucoside as substrate. DGKα activity led to conversion of DAG and ATP to Phosphatidic Acid (PA) and ADP. Levels of ADP were monitored by bioluminescence using the ADP-Glo Kinase Assay (Promega) and were indicative of DGKα activity.
Ten nanoliters of test compound dissolved in DMSO at various concentrations were dispensed into a 384-well low volume nonbinding service white plates (Corning #3824) using a Labcyte Echo instrument. Recombinant DGKα (Carna Biosciences) in assay buffer (5 μL in 50 mM MOPS [3-(N-morpholino) propanesulfonic acid], pH 7.2; 0.0025% Triton X-100; 1 mM dithiothreitol; 5 mM MgCl2, 200 μM ATP) was added to the compound-containing plate and was incubated for 15 minutes at 25° C. A substrate solution (5 μL in 1.7 mM 1,2-dioleoyl-sn-glycerol [18:1 DAG], 13.5 mM 1-palmitoyl-2-oleoyl-sn-glycero-3-phospho-L-serine [16:0-18:1 PS](POPS), 2 μM CaCl2, 100 mM Octylglucoside (OG), 1 mM DTT) (obtained from Carna Biosciences) diluted in DGK ALPHA assay buffer was then added to start the reaction. Final concentrations were 1 nM DGKα, 100 μM ATP, 1 μM calcium chloride, 0.85 mM 1,2-dioleoyl-sn-glycerol (18:1 DAG), 6.75 mM 1-palmitoyl-2-oleoyl-sn-glycero-3-phospho-L-serine (16:0-18:1 PS) (POPS), 1 μM CaCl2), 50 mM Octylglucoside (OG) and 5 mM MgCl2. The reaction mixture was incubated at 25° C. for 1 hour. ADP-Glo Reagent (10 μL, 10 mM Mg added) provided by the kit was added to each well and incubated at 25° C. for 40 minutes. Then, 20 μL of Kinase Detection Reagent was added and incubated at 25° C. for 40 minutes. Luciferase activity of each well was measured via luminescence on an Envision plate reader (PerkinElmer).
Data were normalized based on maximum inhibition (50 μM of kinase inhibitor CU3) and no inhibition (DMSO) controls. Least squares curve fittings were performed using a four-parameter variable slope nonlinear regression model. IC50 was defined as the concentration of compound required to inhibit 50% of maximum activity. IC50 values from multiple experiments were averaged by geometric mean and the standard deviation was calculated.

Sequence of human DGKα (P23743 whole entry): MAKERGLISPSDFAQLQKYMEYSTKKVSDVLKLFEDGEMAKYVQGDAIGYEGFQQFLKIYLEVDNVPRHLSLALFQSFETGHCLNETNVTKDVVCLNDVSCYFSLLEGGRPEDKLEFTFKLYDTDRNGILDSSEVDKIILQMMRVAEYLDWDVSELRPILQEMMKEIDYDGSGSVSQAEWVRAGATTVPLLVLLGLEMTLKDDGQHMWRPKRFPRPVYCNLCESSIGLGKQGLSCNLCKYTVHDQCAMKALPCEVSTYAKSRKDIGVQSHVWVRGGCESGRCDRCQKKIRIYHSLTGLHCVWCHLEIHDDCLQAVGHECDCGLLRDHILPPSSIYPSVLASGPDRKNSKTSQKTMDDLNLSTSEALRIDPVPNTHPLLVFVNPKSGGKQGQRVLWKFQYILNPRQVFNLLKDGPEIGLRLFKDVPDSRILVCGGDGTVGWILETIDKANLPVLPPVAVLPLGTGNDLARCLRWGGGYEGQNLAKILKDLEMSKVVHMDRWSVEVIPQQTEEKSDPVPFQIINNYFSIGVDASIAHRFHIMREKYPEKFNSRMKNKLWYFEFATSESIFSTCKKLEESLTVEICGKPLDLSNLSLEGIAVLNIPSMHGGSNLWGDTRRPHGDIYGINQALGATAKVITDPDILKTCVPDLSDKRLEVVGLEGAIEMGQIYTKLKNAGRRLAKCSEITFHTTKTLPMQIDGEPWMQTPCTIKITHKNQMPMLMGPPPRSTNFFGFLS

| SMILES | EC50 [1] | IC50 (human DGKα) |
| --- | --- | --- |
| Cc1nnc2nc(N(CC(F)F)c3ccnc(C#CC4(C(F)(F)F)CC4)c3)c3c(F)cncc3n12 [Example 53, N-(2,2-difluoroethyl)-6-fluoro-1-methyl-N-(2-((1-(trifluoromethyl)cyclopropyl)ethynyl)pyridin-4-yl)pyrido[4,3-e][1,2,4]triazolo[4,3-a]pyrimidin-5-amine] | 12.1 nM | 16 nM |
| Cc1nnc2nc(N3CCCOc4c(C#CC(C)(C)C(F)(F)F)cccc43)c3c(F)cncc3n12 [Example 70, 5-(6-fluoro-1-methylpyrido[4,3-e][1,2,4]triazolo[4,3-a]pyrimidin-5-yl)-9-(4,4,4-trifluoro-3,3-dimethylbut-1-yn-1-yl)-2,3,4,5-tetrahydrobenzo[b][1,4]oxazepine] | 2.62 nM | 6.44 nM |
| Cc1nnc2nc(N3CCCc4c3ccnc4C#CC(C)(C)C#N)c3c(F)cncc3n12 [Example 31, 4-(1-(6-fluoro-1-methylpyrido[4,3-e][1,2,4]triazolo[4,3-a]pyrimidin-5-yl)-1,2,3,4-tetrahydro-1,6-naphthyridin-5-yl)-2,2-dimethylbut-3-ynenitrile] | 81.1 nM | 72.3 nM |
| CN(c1cc(F)cc(-c2ccc(N3CC4(CC4)CS3(=O)=O)nc2)c1)c1nc2nnnn2c2ccc(F)cc12 [Example 8] | 4.66 nM | 31.1 nM |
| CCC1(C#Cc2cccc(N(C)c3nc4nncn4c4ncc(F)cc34)c2)CC1 [Example 151, N-[3-[2-(1-ethylcyclopropyl)ethynyl]phenyl]-11-fluoro-N-methyl-2,4,5,7,13-pentazatricyclo[7.4.0.02,6]trideca-1(13),3,5,7,9,11-hexaen-8-amine] | 3.82 nM | 51.4 nM |
| CC(C)(C#Cc1cc(F)cc(N(CC(F)F)c2nc3nncn3c3cncc(F)c23)c1)C(F)(F)F [Example 46, N-(2,2-difluoroethyl)-6-fluoro-N-(3-fluoro-5-(4,4,4-trifluoro-3,3-dimethylbut-1-yn-1-yl)phenyl)pyrido[4,3-e][1,2,4]triazolo[4,3-a]pyrimidin-5-amine] | 3.34 nM | 40.9 nM |
| CC(C)(C#Cc1cccc2c1CCCN2c1nc2nncn2c2cncc(F)c12)C(F)(F)F [Example 84, 10-fluoro-8-[5-(4,4,4-trifluoro-3,3-dimethyl-but-1-ynyl)-3,4-dihydro-2H-quinolin-1-yl]-2,4,5,7,12-pentazatricyclo[7.4.0.02,6]trideca-1(13),3,5,7,9,11-hexaene] | 1.19 nM | 10.7 nM |
| CN(c1cc(F)cc(-c2cnc(C3CC3)cn2)c1)c1nc2nnnn2c2ccc(F)cc12 [Example 6, N-(3-(5-cyclopropylpyrazin-2-yl)-5-fluorophenyl)-7-fluoro-N-methyltetrazolo[1,5-a]quinazolin-5-amine] | 1.31 nM | 15.7 nM |
| CC(C)(O)C#Cc1cccc2c1CCCN2c1nc2nncn2c2ncc(F)cc12 [Example 149, 4-(1-(3-fluoropyrido[3,2-e][1,2,4]triazolo[4,3-a]pyrimidin-5-yl)-1,2,3,4-tetrahydroquinolin-5-yl)-2-methylbut-3-yn-2-ol] | 12 nM | 8.71 nM |
| Cc1nnc2nc(N3CCCc4c(C#Cc5cnn(C)c5)cccc43)c3ccc(C(F)(F)F)nc3n12 [Example 139, 9-methyl-5-(5-((1-methyl-1H-pyrazol-4-yl)ethynyl)-3,4-dihydroquinolin-1(2H)-yl)-2-(trifluoromethyl)pyrido[3,2-e][1,2,4]triazolo[4,3-a]pyrimidine] | 6.04 nM | 47.8 nM |
| Cc1nnc2nc(N3CCOCc4c(C#CC(C)(C)C#N)cccc43)c3c(F)cncc3n12 [Example 96, 4-(1-(6-fluoro-1-methylpyrido[4,3-e][1,2,4]triazolo[4,3-a]pyrimidin-5-yl)-1,2,3,5-tetrahydrobenzo[e][1,4]oxazepin-6-yl)-2,2-dimethylbut-3-ynenitrile] | 6.63 nM | 3.84 nM |
| Cc1ccc2c(N(C)c3cccc(Cl)c3)nc3nncn3c2n1 [Example 125, N-(3-chlorophenyl)-N,2-dimethylpyrido[3,2-e][1,2,4]triazolo[4,3-a]pyrimidin-5-amine] | 169 nM | 734 nM |
| CNc1ccc2c(N(C)c3cccc(-c4ccc(C5CC5)cc4)c3)nc3nncn3c2n1 [Example 120, N5-(4′-cyclopropyl-[1,1′-biphenyl]-3-yl)-N2,N5-dimethylpyrido[3,2-e][1,2,4]triazolo[4,3-a]pyrimidine-2,5-diamine] | 0.664 nM | 19.3 nM |
| CC(C)(O)C#Cc1cc(N(CC(F)F)c2nc3nncn3c3cncc(F)c23)ccn1 [Example 54, 4-(4-((2,2-difluoroethyl)(6-fluoropyrido[4,3-e][1,2,4]triazolo[4,3-a]pyrimidin-5-yl)amino)pyridin-2-yl)-2-methylbut-3-yn-2-ol] | 1000 nM | 184 nM |
| CN(c1cc(F)cc(C#CC2(C(F)(F)F)CC2)c1)c1nc2nncn2c2cncc(F)c12 [Example 93, 10-fluoro-N-[3-fluoro-5-[2-[1-(trifluoromethyl)cyclopropyl]ethynyl]phenyl]-N-methyl-2,4,5,7,12-pentazatricyclo[7.4.0.02,6]trideca-1(13),3,5,7,9,11-hexaen-8-amine] | 0.763 nM | 7.17 nM |
| Cc1nnc2nc(N(C)c3cccc(-c4ccc(C(F)F)cc4)c3)c3ccc(N)nc3n12 [Example 134, N5-(4′-(difluoromethyl)-[1,1′-biphenyl]-3-yl)-N5,9-dimethylpyrido[3,2-e][1,2,4]triazolo[4,3-a]pyrimidine-2,5-diamine] | 8.3 nM | 12.3 nM |
| Cc1nnc2nc(N3CCOCc4c(C#CC5(C)CC5)cccc43)c3ccc(C(F)(F)F)nc3n12 [Example 140, 1-(9-methyl-2-(trifluoromethyl)pyrido[3,2-e][1,2,4]triazolo[4,3-a]pyrimidin-5-yl)-6-((1-methylcyclopropyl)ethynyl)-1,2,3,5-tetrahydrobenzo[e][1,4]oxazepine] | 2.37 nM | 11.5 nM |
| Cc1nnc2nc(N3CCOCc4c(C#CC5CC5)cccc43)c3c(F)cncc3n12 [Example 80, 6-(cyclopropylethynyl)-1-(6-fluoro-1-methylpyrido[4,3-e][1,2,4]triazolo[4,3-a]pyrimidin-5-yl)-1,2,3,5-tetrahydrobenzo[e][1,4]oxazepine] | 4.78 nM | 1.68 nM |
| Fc1cnc2c(c1)c(N1CCCc3c(C#CC4(C(F)F)CC4)cccc31)nc1nncn12 [Example 108, 5-(5-((1-(difluoromethyl)cyclopropyl)ethynyl)-3,4-dihydroquinolin-1(2H)-yl)-3-fluoropyrido[3,2-e][1,2,4]triazolo[4,3-a]pyrimidine] | 3.08 nM | 3.43 nM |
| Cc1nnc2nc(N(CC(F)F)c3cc(F)cc(C#CC4(C(F)(F)F)CC4)c3)c3c(F)cncc3n12 [Example 51, N-(2,2-difluoroethyl)-6-fluoro-N-(3-fluoro-5-((1-(trifluoromethyl)cyclopropyl)ethynyl)phenyl)-1-methylpyrido[4,3-e][1,2,4]triazolo[4,3-a]pyrimidin-5-amine] | 9.17 nM | 36.2 nM |
